The results in this text go back to US12331063B2, “Hetero-bicyclic inhibitors of KRAS” (Incyte Corporation, priority 2021, dated 2025).

Chain of KRAS G12D (P01116 1-188 isoform P01116-2 G12D): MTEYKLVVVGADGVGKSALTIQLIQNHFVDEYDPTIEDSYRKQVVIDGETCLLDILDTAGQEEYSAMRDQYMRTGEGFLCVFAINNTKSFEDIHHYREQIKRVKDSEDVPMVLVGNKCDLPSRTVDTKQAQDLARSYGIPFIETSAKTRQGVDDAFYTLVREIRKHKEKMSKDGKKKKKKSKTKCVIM

For this test, the target named is KRAS G12D (Homo sapiens, UniProt P01116, G12D). The experiment in a line: GDP-GTP exchange assay (bodipy-GDP/GppNHp, SOS1), KRAS G12D. It counts as biochemical. Conditions: bodipy-loaded KRAS G12D 2.5 nM, 4 hours incubation after adding GppNHp-SOS1 mixture. The procedure:
The inhibitor potency of the exemplified compounds was determined in a fluorescence based guanine nucleotide exchange assay, which measures the exchange of bodipy-GDP (fluorescently labeled GDP) for GppNHp (Non-hydrolyzable GTP analog) to generate the active state of KRAS in the presence of SOS1 (guanine nucleotide exchange factor). Inhibitors were serially diluted in DMSO and a volume of 0.1 μL was transferred to the wells of a black low volume 384-well plate. 5 μL/well volume of bodipy-loaded KRAS G12C diluted to 5 nM in assay buffer (25 mM Hepes pH 7.5, 50 mM NaCl, 10 mM MgCl2 and 0.01% Brij-35) was added to the plate and pre-incubated with inhibitor for 2 hours at ambient temperature. Appropriate controls (enzyme with no inhibitor or with a G12C inhibitor (AMG-510)) were included on the plate. The exchange was initiated by the addition of a 5 μL/well volume containing 1 mM GppNHp and 300 nM SOS1 in assay buffer. The 10 μL/well reaction concentration of the bodipy-loaded KRAS G12C, GppNHp, and SOS1 were 2.5 nM, 500 uM, and 150 nM, respectively. The reaction plates were incubated at ambient temperature for 2 hours, a time estimated for complete GDP-GTP exchange in the absence of inhibitor. For the KRAS G12D and G12V mutants, similar guanine nucleotide exchange assays were used with 2.5 nM as final concentration for the bodipy loaded KRAS proteins and with 4 hours and 3 hours incubation after adding GppNHp-SOS1 mixture for G12D and G12V respectively. A cyclic peptide described to selectively bind G12D mutant (Sakamoto et al., BBRC 484.3 (2017), 605-611) or internal compounds with confirmed binding were used as positive controls in the assay plates. Fluorescence intensities were measured on a PheraStar plate reader instrument (BMG Labtech) with excitation at 485 nm and emission at 520 nm.
Either GraphPad prism or XLfit was used to analyze the data. The IC50 values were derived by fitting the data to a four parameter logistic equation producing a sigmoidal dose-response curve with a variable Hill coefficient. Prism equation: Y=Bottom+(Top−Bottom)/(1+10^((Log IC50−X)*Hill slope)); XLfit equation: Y=(A+((B−A)/(1+((X/C)^D)))) where X is the logarithm of inhibitor concentration and Y is the response.
The symbol “†” indicates IC50≤100 nM, “††” indicates IC50>100 nM but ≤1 μM; and “†††” indicates IC50 is >1 μM but ≤5 μM, “††††” indicates IC50 is >5 μM but ≤10 μM.
Consider `CN(C)C1CN(c2nc(N3C4CCC3CNC4)c3ccc(-c4cc(O)cc5ccccc45)c(F)c3c2C#N)C1` [Example 1, 1-(3,8-diazabicyclo[3.2.1]octan-8-yl)-3-(3-(dimethylamino)azetidin-1-yl)-5-fluoro-6-(3-hydroxynaphthalen-1-yl)isoquinoline-4-carbonitrile], for which the IC50 was not above 100 nM.

`CN(C)C1CN(c2nc(N3C4CCC3CNC4)c3cc(CCC#N)c(-c4cc(O)cc5ccccc45)c(F)c3c2Cl)C1` [Example 2, 3-(1-(3,8-diazabicyclo[3.2.1]octan-8-yl)-4-chloro-3-(3-(dimethylamino)azetidin-1-yl)-5-fluoro-6-(3-hydroxynaphthalen-1-yl)isoquinolin-7-yl)propanenitrile]: the IC50 is 100 to 1000 nM. Consider `Cc1c(N2CC(N(C)C)C2)nc(N2C3CCC2CNC3)c2cc(CCC#N)c(-c3cc(O)cc4ccccc34)c(F)c12` [Example 3, 3-(1-(3,8-diazabicyclo[3.2.1]octan-8-yl)-3-(3-(dimethylamino)azetidin-1-yl)-5-fluoro-6-(3-hydroxynaphthalen-1-yl)-4-methylisoquinolin-7-yl)propanenitrile], for which the IC50 was in the range of 100 to 1000 nM. For `CN(C)C1CN(c2nc(N3C4CCC3CNC4)c3cc(CCC#N)c(-c4cc(O)cc5ccccc45)c(F)c3c2-c2ccccc2)C1` [Example 4, 3-(1-(3,8-diazabicyclo[3.2.1]octan-8-yl)-3-(3-(dimethylamino)azetidin-1-yl)-5-fluoro-6-(3-hydroxynaphthalen-1-yl)-4-phenylisoquinolin-7-yl)propanenitrile] the value was 5000 to 10000 nM. With `CN(C)C1CN(c2nc(N3C4CCC3CNC4)c3cc(CCC#N)c(-c4cc(O)cc5ccccc45)c(F)c3c2C2CC2)C1` [Example 5, 3-(1-(3,8-diazabicyclo[3.2.1]octan-8-yl)-4-cyclopropyl-3-(3-(dimethylamino)azetidin-1-yl)-5-fluoro-6-(3-hydroxynaphthalen-1-yl)isoquinolin-7-yl)propanenitrile] the figure was 100 to 1000 nM; with `CN(C)C1CN(c2nc(N3C4CCC3CNC4)c3cc(CCC#N)c(-c4cc(O)cc5ccccc45)c(F)c3c2C#N)C1` [Example 6, 1-(3,8-diazabicyclo[3.2.1]octan-8-yl)-7-(2-cyanoethyl)-3-(3-(dimethylamino)azetidin-1-yl)-5-fluoro-6-(3-hydroxynaphthalen-1-yl)isoquinoline-4-carbonitrile], 100 to 1000 nM. For `CN1CCC[C@H]1COc1nc(N2C3CCC2CNC3)c2cc(CCC#N)c(-c3cc(O)cc4ccccc34)c(F)c2c1C#N` [Example 7, 1-(3,8-diazabicyclo[3.2.1]octan-8-yl)-7-(2-cyanoethyl)-5-fluoro-6-(3-hydroxynaphthalen-1-yl)-3-(((S)-1-methylpyrrolidin-2-yl)methoxy)isoquinoline-4-carbonitrile] the value was 100 to 1000 nM. `CN1CCC(Oc2nc(N3C4CCC3CNC4)c3cc(CCC#N)c(-c4cc(O)cc5ccccc45)c(F)c3c2C#N)CC1` [Example 8, 1-(3,8-diazabicyclo[3.2.1]octan-8-yl)-7-(2-cyanoethyl)-5-fluoro-6-(3-hydroxynaphthalen-1-yl)-3-((1-methylpiperidin-4-yl)oxy)isoquinoline-4-carbonitrile]: the IC50 was in the range of 100 to 1000 nM.

As for `CN(C)Cc1cccc(-c2nc(N3C4CCC3CNC4)c3cc(CCC#N)c(-c4cc(O)cc5ccccc45)c(F)c3c2C#N)c1` [Example 9, 1-(3,8-diazabicyclo[3.2.1]octan-8-yl)-7-(2-cyanoethyl)-3-(3-((dimethylamino)methyl)phenyl)-5-fluoro-6-(3-hydroxynaphthalen-1-yl)isoquinoline-4-carbonitrile], the IC50 is 100 to 1000 nM. As for `CN(C)C1CN(c2nc(N3C[C@H]4CC[C@@H]3CN4)c3cc(CCC#N)c(-c4cc(O)cc5ccccc45)c(F)c3c2C#N)C1` [Example 10, 1-((1R,4R)-2,5-diazabicyclo[2.2.2]octan-2-yl)-7-(2-cyanoethyl)-3-(3-(dimethylamino)azetidin-1-yl)-5-fluoro-6-(3-hydroxynaphthalen-1-yl)isoquinoline-4-carbonitrile], the IC50 was 100 to 1000 nM. For `CN(C)C1CN(c2nc(N3C[C@@H](N)C[C@H]3CO)c3cc(CCC#N)c(-c4cc(O)cc5ccccc45)c(F)c3c2C#N)C1` [Example 11, 1-((2S,4S)-4-amino-2-(hydroxymethyl)pyrrolidin-1-yl)-7-(2-cyanoethyl)-3-(3-(dimethylamino)azetidin-1-yl)-5-fluoro-6-(3-hydroxynaphthalen-1-yl)isoquinoline-4-carbonitrile] the value was 100 to 1000 nM. With `CN(C)C1CN(c2nc(N3CCC(CC#N)C3)c3cc(CCC#N)c(-c4cc(O)cc5ccccc45)c(F)c3c2C#N)C1` (stereo not shown) [Example 12, 7-(2-cyanoethyl)-1-(3-(cyanomethyl)pyrrolidin-1-yl)-3-(3-(dimethylamino)azetidin-1-yl)-5-fluoro-6-(3-hydroxynaphthalen-1-yl)isoquinoline-4-carbonitrile] the figure was not above 100 nM.

As to `CN(C)C1CN(c2nc(N3CC[C@H](N)C3)c3cc(CCC#N)c(-c4cc(O)cc5ccccc45)c(F)c3c2C#N)C1` [Example 13, 1-((S)-3-aminopyrrolidin-1-yl)-7-(2-cyanoethyl)-3-(3-(dimethylamino)azetidin-1-yl)-5-fluoro-6-(3-hydroxynaphthalen-1-yl)isoquinoline-4-carbonitrile], the IC50 was not above 100 nM. For `C[C@@H]1C[C@H](N)CN1c1nc(N2CC(N(C)C)C2)c(C#N)c2c(F)c(-c3cc(O)cc4ccccc34)c(CCC#N)cc12` [Example 14, 1-((2R,4S)-4-amino-2-methylpyrrolidin-1-yl)-7-(2-cyanoethyl)-3-(3-(dimethylamino)azetidin-1-yl)-5-fluoro-6-(3-hydroxynaphthalen-1-yl)isoquinoline-4-carbonitrile] the value was not above 100 nM; for `N#Cc1c(OC[C@@]23CCCN2C[C@H](F)C3)nc(N2CC3CCC(C2)N3)c2cnc(-c3cc(O)cc4ccccc34)c(F)c12` [Example 15, 1-(3,8-diazabicyclo[3.2.1]octan-3-yl)-5-fluoro-3-(((2R,7aS)-2-fluorotetrahydro-1H-pyrrolizin-7a(5H)-yl)methoxy)-6-(3-hydroxynaphthalen-1-yl)-2,7-naphthyridine-4-carbonitrile], not above 100 nM; for `CCc1c(F)ccc2cc(O)cc(-c3ncc4c(N5CC6CCC(C5)N6)nc(N5CC(C)(N(C)C)C5)c(C#N)c4c3F)c12` [Example 16, 1-(3,8-diazabicyclo[3.2.1]octan-3-yl)-3-(3-(dimethylamino)-3-methylazetidin-1-yl)-6-(8-ethyl-7-fluoro-3-hydroxynaphthalen-1-yl)-5-fluoro-2,7-naphthyridine-4-carbonitrile], not above 100 nM.
